Source: patent US7435801B2, “Antibodies and other ligands directed against KIR2DL4 receptor for production of interferon gamma” (The United States of America, as represented by the …, priority 2000, dated 2008)

Key:
[1] = tested on: IL-2-mediated induction of IFN-gamma production; experiment: MAPK inhibitors on rIL-2-induced IFN-gamma release by resting NK cells; assay type: cell-based, human; details: rIL-2 5 U/ml, 20 h
[2] = tested on: 2DL4-induced production of IFN-gamma; experiment: MAPK inhibitors on anti-2DL4 mAb-induced IFN-gamma secretion by resting NK cells; assay type: cell-based, human

Structure (SMILES) | inhibition of IL-2-mediated induction of IFN-gamma production ([1]; 50 μM inhibitor) | inhibition of 2DL4-induced IFN-gamma production ([2]; concentration not given) | effect on IL-2-mediated induction of IFN-gamma production ([1]; concentration not given) | inhibition of 2DL4-induced IFN-gamma production ([2]; 1 μM inhibitor)
COc1cccc(-c2cc(=O)c3ccccc3o2)c1N [PD98059] | severely inhibited | only a partial inhibitory effect |  | 
C[S+]([O-])c1ccc(-c2nc(-c3ccncc3)c(-c3ccc(F)cc3)[nH]2)cc1 (stereo not shown) [SB203580] |  |  | unaffected | Complete inhibition
